Data on 10 compounds can be found in ChEMBL document CHEMBL4732239, “Novel molecule combinations and corresponding hybrids targeting artemisinin-resistant Plasmodium falciparum parasites” (Bioorg Med Chem Lett, 2021).

For data set [1], the system named is Plasmodium falciparum. As to the kind of experiment: Antimalarial activity against artemisinin-sensitive Plasmodium falciparum F32-TEM by SYBR green dye based fluorescence assay. The class given is functional, organism-based.
The nature of data set [2]: Cytotoxicity against African green monkey Vero cells assessed as inhibition of cell proliferation. The format is cell-based. The following applies: chlorocebus sabaeus.
Data set [3] deals with Plasmodium falciparum. Kind of data set: Antimalarial activity against ring stage artemisinin-sensitive Plasmodium falciparum F32-TEM assessed as time taken for recrudescence by measuring parasitemia at 7 uM after 48 hrs. The format is functional.
A short description of data set [4]: Selective index, ratio of CC50 for African green monkey Vero cells to IC50 for plasmodium falciparum.
Data set [5] relates to Plasmodium falciparum. As to the kind of experiment: Antimalarial activity against Plasmodium falciparum assessed as difference of time taken for recrudescence Plasmodium falciparum […] between ring stage artemisinin-sensitive Plasmodium falciparum F32-TEM measured at 7 uM after 48 hrs. The class given is functional.
Data set [6] has as its system Plasmodium falciparum. Kind of data set: Antimalarial activity against ring stage artemisinin-resistant Plasmodium falciparum F32-ART5 assessed as time taken for recrudescence by measuring parasitemia at 7 uM after 48 hrs. The format is functional.
For data set [7], the system named is Plasmodium falciparum. Kind of data set: Antimalarial activity against ring stage artemisinin-sensitive Plasmodium falciparum F32-TEM assessed as time taken for recrudescence by measuring parasitemia at 1 uM after 48 hrs. The class given is functional.
Data set [8] has as its system Plasmodium falciparum. Kind of data set: Antimalarial activity against Plasmodium falciparum assessed as difference of time taken for recrudescence Plasmodium falciparum F32-ART5 between ring stage artemisinin-sensitive Plasmodium falciparum F32-TEM measured at 1 uM after 48 hrs.
The subject of data set [9] is Plasmodium falciparum. Kind of data set: Antimalarial activity against ring stage artemisinin-resistant Plasmodium falciparum F32-ART5 assessed as time taken for recrudescence by measuring parasitemia pretreated with dihydroartemisinin for 6 hrs followed by treated at 7 uM for 48 hrs by Quiescent-stage Survival Assay. The format is functional.
For data set [10], the system named is Plasmodium falciparum. As to the kind of experiment: Antimalarial activity against Plasmodium falciparum assessed as difference of time taken for recrudescence Plasmodium falciparum […] between ring stage artemisinin-sensitive Plasmodium falciparum F32-TEM measured at 20 uM after 48 hrs. The format is functional.
Data set [11] concerns Plasmodium falciparum. Kind of data set: Antimalarial activity against ring stage artemisinin-resistant Plasmodium falciparum F32-ART5 assessed as time taken for recrudescence by measuring parasitemia at 20 uM after 48 hrs. The format is functional.
Data set [12] has as its system Plasmodium falciparum. As to the kind of experiment: Antimalarial activity against ring stage artemisinin-sensitive Plasmodium falciparum F32-TEM assessed as time taken for recrudescence by measuring parasitemia at 20 uM after 48 hrs. The format is functional.
For data set [13], the system named is Plasmodium falciparum. As to the kind of experiment: Antimalarial activity against ring stage artemisinin-resistant Plasmodium falciparum F32-ART5 assessed as time taken for recrudescence by measuring parasitemia at 18 uM after 48 hrs. The class given is functional.
For data set [14], the system named is Plasmodium falciparum. Kind of data set: Antimalarial activity against ring stage artemisinin-sensitive Plasmodium falciparum F32-TEM assessed as time taken for recrudescence by measuring parasitemia at 18 uM after 48 hrs. The class given is functional.
For data set [15], the system named is Plasmodium falciparum. As to the kind of experiment: Antimalarial activity against Plasmodium falciparum assessed as difference of time taken for recrudescence Plasmodium falciparum […] between ring stage artemisinin-sensitive Plasmodium falciparum F32-TEM measured at 18 uM after 48 hrs. The format is functional.
For data set [16], the system named is Plasmodium falciparum. Kind of data set: Antimalarial activity against ring stage artemisinin-resistant Plasmodium falciparum F32-ART5 assessed as time taken for recrudescence by measuring parasitemia at 1 uM after 48 hrs. The format is functional.
For data set [17], the system named is Plasmodium falciparum. As to the kind of experiment: Antimalarial activity against ring stage artemisinin-resistant Plasmodium falciparum F32-ART5 assessed as time taken for recrudescence by measuring parasitemia pretreated with dihydroartemisinin for 6 hrs followed by treated at 200 nM for 48 hrs by Quiescent-stage Survival Assay. The format is functional.

Where only a bound is given, the exact number is not on record here.

For `Cc1[nH]c(C)c(-c2ccc(Oc3ccc(OC(F)(F)F)cc3)cc2)c(=O)c1Cl`, half-maximal inhibition with Plasmodium falciparum [1] (IC50) required 42 nM. Further, the CC50 (as a rule, the concentration that lowers cell viability or growth by half) in [2] was found to be 8000 nM. For the same compound, the Time in the data set on Plasmodium falciparum [3] was determined as 8 days; with Plasmodium falciparum [5], 3 days; with Plasmodium falciparum [6] it was 2 days. In addition, the “Ratio CC50/IC50” value in [4] turned out to be 190.
Consider `Cl.O=C(CCCC(=O)O[C@H](c1cc(C(F)(F)F)nc2c(C(F)(F)F)cccc12)[C@@H]1CCCCN1)OC1=C([C@H]2CC[C@H](c3ccc(Cl)cc3)CC2)C(=O)c2ccccc2C1=O`, for which, in the data set on Plasmodium falciparum [1], half-maximal inhibition (IC50) required 1.1 nM. Further, in data set [2], the CC50 was 5000 nM. Further, the Time with Plasmodium falciparum [7] came to 14 days; with Plasmodium falciparum [8], 0 days. In addition, in data set [4], the “Ratio CC50/IC50” value worked out at 4545.
Consider `O=C(CCCCCCC(=O)Oc1cc(Cl)ccc1Oc1ccc(Cl)cc1Cl)OC1=C([C@H]2CC[C@H](c3ccc(Cl)cc3)CC2)C(=O)c2ccccc2C1=O`, for which 0.6 nM corresponded to half-maximal inhibition in the data set on Plasmodium falciparum [1] (IC50). In addition, the cytotoxic concentration (CC50) in [2] was determined as 6000 nM. Moreover, the Time with Plasmodium falciparum [3] is 12 days; in the data set on Plasmodium falciparum [9], 10 days; with Plasmodium falciparum [5], 4 days; with Plasmodium falciparum [6], 9 days. The “Ratio CC50/IC50” value in data set [4] turned out to be 10000.
Regarding `Cc1nc(C)c(-c2ccc(Oc3ccc(OC(F)(F)F)cc3)cc2)c(OC(=O)CCCCCCC(=O)Oc2cc(Cl)ccc2Oc2ccc(Cl)cc2Cl)c1Cl`, the IC50 (in general, the point on the concentration scale where inhibition reaches its midpoint) in the data set with Plasmodium falciparum [1] turned out to be 169 nM. Besides, the CC50 in data set [2] is > 120000 nM. The Time turned out to be 4 days with Plasmodium falciparum [3]; 1 days in the data set on Plasmodium falciparum [10]; 2 days in the data set with Plasmodium falciparum [11]; 0.6 days with Plasmodium falciparum [5]; 3 days with Plasmodium falciparum [12]; 3 days in the data set with Plasmodium falciparum [6]. Further, the “Ratio CC50/IC50” value in [4] is on record as >710.
Regarding `Cl.O=C(CCC(=O)O[C@H](c1cc(C(F)(F)F)nc2c(C(F)(F)F)cccc12)[C@@H]1CCCCN1)OC1=C([C@H]2CC[C@H](c3ccc(Cl)cc3)CC2)C(=O)c2ccccc2C1=O`, in the data set on Plasmodium falciparum [1], inhibition was half-maximal at 0.6 nM (IC50). For the same compound, the CC50 in [2] amounted to 4000 nM. Besides, the values for the Time in the data set on Plasmodium falciparum [7] and with Plasmodium falciparum [8] were 14 days and 0 days, respectively. In addition, the “Ratio CC50/IC50” value in data set [4] was 6660.
In turn, `O[C@@H](c1cc(C(F)(F)F)nc2c(C(F)(F)F)cccc12)[C@H]1CCCCN1` [(S,R)-MEFLOQUINE] had a 50% inhibitory concentration (IC50) in the data set on Plasmodium falciparum [1] of 87 nM. Also, the CC50 in [2] worked out at 21000 nM. For the same compound, in the data set with Plasmodium falciparum [7], the Time is >30 days. Besides, in data set [4], the “Ratio CC50/IC50” value was 241.
`C[C@@H]1CC[C@H]2[C@@H](C)C(=O)O[C@@H]3O[C@@]4(C)CC[C@@H]1[C@]32OO4` [ARTEMISININ] gave an IC50 with Plasmodium falciparum [1] of 18 nM. Also, the Time with Plasmodium falciparum [13] came out at 9 days; in the data set with Plasmodium falciparum [14] it was 22 days; in the data set on Plasmodium falciparum [15], 12.5 days.
Consider `O=C1C(O)=C([C@H]2CC[C@H](c3ccc(Cl)cc3)CC2)C(=O)c2ccccc21` [ATOVAQUONE], for which the IC50 with Plasmodium falciparum [1] was determined as 2.1 nM. For the same compound, the CC50 in [2] came out at 500 nM. Besides, the Time in the data set on Plasmodium falciparum [3] was 23 days; in the data set with Plasmodium falciparum [7], 14 days; in the data set on Plasmodium falciparum [16] it was 11 days; in the data set on Plasmodium falciparum [9] it was 18 days; in the data set with Plasmodium falciparum [5], “<=1 day”; in the data set with Plasmodium falciparum [8] it was 3 days. In addition, in the data set on Plasmodium falciparum [6], the Time came to 21 days. In addition, in [4], the “Ratio CC50/IC50” value is 257.
As for `CCN(CC)CCCC(C)Nc1ccnc2cc(Cl)ccc12` (stereo unspecified) [CHLOROQUINE], the Time in the data set with Plasmodium falciparum [17] worked out at 8 days.
For the compound `Oc1cc(Cl)ccc1Oc1ccc(Cl)cc1Cl` [TRICLOSAN], the CC50 in [2] is 25000 nM. In addition, the Time with Plasmodium falciparum [3] is 6 days; in the data set with Plasmodium falciparum [9], 7 days; with Plasmodium falciparum [6], 5 days. Also, the “Ratio CC50/IC50” value in data set [4] is 5.
